From patent US20210244028A1, “TREATMENT FOR REMOVING ECTOPARASITES FROM FISH” (priority 2018, published 2021)
Where “and” joins values, the source holds several entries; their conditions need not be identical. Equal values may be shown once. Read-outs that look alike come from different tables or passages of the source.

Assays:
Lepeophtheirus salmonis [1] = details: for percentage responsiveness of lice recovered from tank at treatment end at 24 hours post-treatment: lice knocked off fish
Experimental: (§1) Lice were monitored continuously for the duration of the exposure and behavioural observations noted, including detachment of lice from fish. At the end of exposure lice were either removed from the tank or fish, placed into small vented plastic screw-top containers (125 mL, LDPE, 25 mm hole drilled into lid and secured with 200 μm mesh), and transferred to a clean tank supplied with filtered sea water and held there for 24 h. Lice which had detached from fish were kept separate from those that had not detached.
24 h post-treatment lice were removed from the screw-top containers to check if they were alive and, if so, if they were responsive. Categories were defined as follows: alive—movement detected; responsive—alive and actively avoids stimulation in a coordinated manner; dead—no movement detected.
Lice defined as responsive could potentially re-attach to a fish. After assessment lice were transferred to 70% alcohol in case determination of instar and sex was required.

Lepeophtheirus salmonis [2] = details: for percentage of sea lice that dropped from treated fish at the end of the treatment period / knockdown times (mean±SEM) / percentage of lice for which their knockdown time equalled that of the exposure time: 20 ppm (nitenpyram 19 ppm); for percentage of sea lice that dropped from treated fish at the end of the treatment period: culled fish; for knockdown times (mean±SEM) / percentage of lice for which their knockdown time equalled that of the exposure time: * only one louse knocked down
Experimental: The fish were acclimatised until normal feeding behaviour resumed, up to a maximum of 10 days, prior to challenge. The fish were housed in 750 litre tanks at a stocking density of no greater than 35 kg/m3. Tanks were provided with a continuous supply of seawater at a flow rate greater than 5 L/min at a temperature of 4.8-10.4° C. The photoperiod was set at 12 hours light: 12 hours dark.
The fish were challenged in a static bath with copepodid instar of Lepeophtheirus salmonis with the appearance of egg strings freshly removed from adult female lice at a target titre of 1,250-1,700 copepodids per tank
Egg strings were harvested from gravid sea lice and incubated in upwelling chambers until nauplii eclosion. Nauplii were allowed to moult through to the copepodid instar (5 days at approx. 10° C.) and then the tank water was filtered through a 100 μm mesh before re-suspending the copepodids in 225 mL of sea water. A 25 mL sample was removed which was then split into 1-2 mL samples in a 24-well plate and the nauplii/copepodids were counted under a stereo microscope. When abundance was sufficient and a minimum of 80% were copepodids the fish were challenged for 8 hours under static flow in the dark.
Fish were randomly selected from tanks, lightly sedated in a 90 ppm MS222 solution sufficient only to induce loss of equilibrium before being sacrificed by a non-recoverable blow to the head. Between 4 and 33 fish were required per treatment.
Culled fish were then suspended in treatment tanks. Fish were suspended in the tank horizontally from cable ties (one through the opercular cavity, one around the peduncle) and wire attached to a wooden rod). One 20 L tank of test item at 20 ppm was used per day. Lice on culled fish were exposed for either 5, 10, 15, 30 or 60 minutes (negative control was only exposed for 60 minutes as this would cover the longest exposure period to be tested). The order within treatment was randomised.
as §1
On the day of exposure, 200 mg of the test ectoparasite treatments was added to 1 L of sea water. Only 192 mg of nitenpyram was supplied. The solution was mechanically stirred for 30 minutes, using a stirring plate and magnetic flea (VWR), at a speed sufficient to generate a strong vortex to ensure a homogenous solution. This was then transferred into an approx. 25 L clear plastic tank containing 9 L of sea water. The solution was then mixed for a further 10 minutes using a small pump (Fluval Sea CP1), which was then removed from the tank prior to addition of fish.
Each treatment requiring 1 to 4 fish per individual treatment per replicate and 2 to 13 fish per group per replicate. Treatments with negative control (sea water), dinotefuran, clothianidin and thiamethoxam were replicated twice, and for imidacloprid three times. There was only one replicate per treatment for nitenpyram. The mean number of lice used per individual treatment was 5.5 to 10, with the mean per group being 6.2-7.2 lice.

[3] = tested on: azamethiphos- and deltamethrin-resistant sea lice; experiment: In vitro bath exposure of isolated sea lice (Example 6); details: 60 minutes exposure, registered approx. 20 h after end of exposure
Experimental: A trial was performed to ensure there was no cross-resistance between azamethiphos- and deltamethrin-resistant sea lice and neonicotinoids. Both pre-adult and adult stages (mobile stages) of both sexes were used, and they were equally distributed among groups. The sea lice were exposed to imidacloprid for 60 minutes, azamethiphos for 60 minutes and deltamethrin for 30 minutes in one litre baths at a range of concentrations (Tables 6, 7 and 8). The sea lice were transferred to clean aerated seawater after treatment. The temperature of the seawater during the experiment was 12° C., but during exposure the temperature raised to approx. 14° C. in regimes exposed for 60 min. (imidacloprid and azamethiphos) and to 13° C. for the regime exposed in 30 minutes (deltamethrin).
The numbers of live and immobilised (including killed) lice in each regime were registered approximately 20 h after end of exposure. Each louse was individually investigated.

Salmon lice = experiment: Bath treatment of lice-infected Atlantic salmon, percent lice removed (Example 7); format: in vivo; details: 0.1 mg/l, 30 minutes, duplicate, 3 fish per test
Experimental: To determine the concentration- and time-dependence of imidacloprid treatment in vivo, Atlantic salmon (average of 320.9 g) were challenged with imidacloprid in seawater ([…] salinity) at 12° C. The water level in the tank was lowered and aeration was employed during administration of the active. The salmon louse copepodid culture was counted and adjusted to obtain a target level of around 40 copepodids per fish in the challenge tank at each challenge time point.
Salmon lice on the fish were counted using standard methods. Only lice on the fish's outer surface, not including gills and oral/buccal cavities, were investigated.
Numbers of dissociated lice in tank water or attached to the tank walls were recorded. Lice in the tank water were collected and assessed for ability to attach by suction to a smooth plastic surface immediately after treatment and again after 30-60 minutes (to assess possible revival). […]
To terminate the treatment, the inner compartment with treated fish was lifted to the surface and drained, then fish were transferred directly and without water to a second basin with a lethal overdose of anaesthetic and left until dead. All lice remaining on these fish and lice that fell off in the anaesthetic bath were recorded. […]

[4] = exposure 15 min, 20 ppm (nitenpyram 19 ppm)
[5] = exposure 30 min, 20 ppm (nitenpyram 19 ppm)
[6] = exposure 60 min, 20 ppm (nitenpyram 19 ppm)
[7] = exposure 5 min, 20 ppm (nitenpyram 19 ppm), 24 h post-treatment
[8] = exposure 10 min, 20 ppm (nitenpyram 19 ppm), 24 h post-treatment
[9] = exposure 15 min, 20 ppm (nitenpyram 19 ppm), 24 h post-treatment
[10] = exposure 30 min, 20 ppm (nitenpyram 19 ppm), 24 h post-treatment
[11] = exposure 60 min, 20 ppm (nitenpyram 19 ppm), 24 h post-treatment

CN/C(=N/CC1CCOC1)N[N+](=O)[O-] (stereo not shown) [dinotefuran]
percentage responsiveness for sea lice recovered from fish at the end of the treatment period (Lepeophtheirus salmonis [1]): 88% and 73% and 100% and 69% and 83% | percentage responsiveness of lice recovered from tank at treatment end at 24 hours post-treatment (Lepeophtheirus salmonis [1]; [4]): 100% | percentage responsiveness of lice recovered from tank at treatment end at 24 hours post-treatment (Lepeophtheirus salmonis [1]; [5]): 0% | percentage responsiveness of lice recovered from tank at treatment end at 24 hours post-treatment (Lepeophtheirus salmonis [1]; [6]): 71% | percentage of sea lice that dropped from treated fish at the end of the treatment period (Lepeophtheirus salmonis [2]; exposure 5 min): 0% | percentage of sea lice that dropped from treated fish at the end of the treatment period (Lepeophtheirus salmonis [2]; exposure 10 min): 0% | percentage of sea lice that dropped from treated fish at the end of the treatment period (Lepeophtheirus salmonis [2]; exposure 15 min): 0% | knockdown times (mean±SEM) (Lepeophtheirus salmonis [2]; exposure 15 min): 900* seconds | percentage of lice for which their knockdown time equalled that of the exposure time (Lepeophtheirus salmonis [2]; exposure 15 min): 100* % | percentage of sea lice that dropped from treated fish at the end of the treatment period (Lepeophtheirus salmonis [2]; exposure 30 min): 7.7% | knockdown times (mean±SEM) (Lepeophtheirus salmonis [2]; exposure 30 min): 1800* seconds | percentage of lice for which their knockdown time equalled that of the exposure time (Lepeophtheirus salmonis [2]; exposure 30 min): 100* % | percentage of sea lice that dropped from treated fish at the end of the treatment period (Lepeophtheirus salmonis [2]; exposure 60 min): 53.3% | knockdown times (mean±SEM) (Lepeophtheirus salmonis [2]; exposure 60 min): 3109 ± 224 s | percentage of lice for which their knockdown time equalled that of the exposure time (Lepeophtheirus salmonis [2]; exposure 60 min): 25%

CCN(Cc1ccc(Cl)nc1)/C(=C/[N+](=O)[O-])NC [nitenpyram]
Responsiveness of lice still on fish at end of exposure (Lepeophtheirus salmonis [1]; all exposure durations (5-60 min), 19 ppm): unaffected at all exposure durations | percentage responsiveness for sea lice recovered from fish at the end of the treatment period (Lepeophtheirus salmonis [1]; [7]): 100% | percentage responsiveness for sea lice recovered from fish at the end of the treatment period (Lepeophtheirus salmonis [1]; [8]): 100% | percentage responsiveness for sea lice recovered from fish at the end of the treatment period (Lepeophtheirus salmonis [1]; [9]): 100% | percentage responsiveness of lice recovered from tank at treatment end at 24 hours post-treatment (Lepeophtheirus salmonis [1]; [4]): 0% | percentage responsiveness for sea lice recovered from fish at the end of the treatment period (Lepeophtheirus salmonis [1]; [10]): 100% | percentage responsiveness for sea lice recovered from fish at the end of the treatment period (Lepeophtheirus salmonis [1]; [11]): 100% | percentage responsiveness of lice recovered from tank at treatment end at 24 hours post-treatment (Lepeophtheirus salmonis [1]; [6]): 0% | percentage of sea lice that dropped from treated fish at the end of the treatment period (Lepeophtheirus salmonis [2]; exposure 5 min): 0% | percentage of sea lice that dropped from treated fish at the end of the treatment period (Lepeophtheirus salmonis [2]; exposure 10 min): 0% | percentage of sea lice that dropped from treated fish at the end of the treatment period (Lepeophtheirus salmonis [2]; exposure 15 min): 16.7% | knockdown times (mean±SEM) (Lepeophtheirus salmonis [2]; exposure 15 min): 900* seconds | percentage of lice for which their knockdown time equalled that of the exposure time (Lepeophtheirus salmonis [2]; exposure 15 min): 100* % | percentage of sea lice that dropped from treated fish at the end of the treatment period (Lepeophtheirus salmonis [2]; exposure 30 min): 0% | percentage of sea lice that dropped from treated fish at the end of the treatment period (Lepeophtheirus salmonis [2]; exposure 60 min): 14.3% | knockdown times (mean±SEM) (Lepeophtheirus salmonis [2]; exposure 60 min): 3600* seconds | percentage of lice for which their knockdown time equalled that of the exposure time (Lepeophtheirus salmonis [2]; exposure 60 min): 100* %

COP(=O)(OC)SCn1c(=O)oc2cc(Cl)cnc21 [azamethiphos]
% effect ([3]; 5 ppm): 0% | Immobilised ([3]; 5 ppm): 0 | Live ([3]; 5 ppm): 10 | % effect ([3]; 10 ppm): 10% | Immobilised ([3]; 10 ppm): 1 | Live ([3]; 10 ppm): 9 | % effect ([3]; 15 ppm): 0% | Immobilised ([3]; 15 ppm): 0 | Live ([3]; 15 ppm): 10 | % effect ([3]; 20 ppm): 10% and 20% | Immobilised ([3]; 20 ppm): 1 and 2 | Live ([3]; 20 ppm): 9 and 8 | Live ([3]; 30 ppm): 9 and 6 | % Removal (Salmon lice): 3.0^33% and 3.8^52%

CN/C(=N\[N+](=O)[O-])NCc1cnc(Cl)s1 [clothianidin]
percentage responsiveness for sea lice recovered from fish at the end of the treatment period (Lepeophtheirus salmonis [1]; [7]): 100% | percentage responsiveness for sea lice recovered from fish at the end of the treatment period (Lepeophtheirus salmonis [1]; [8]): 93% | percentage responsiveness for sea lice recovered from fish at the end of the treatment period (Lepeophtheirus salmonis [1]; [9]): 90% | percentage responsiveness of lice recovered from tank at treatment end at 24 hours post-treatment (Lepeophtheirus salmonis [1]; [4]): 0% | percentage responsiveness for sea lice recovered from fish at the end of the treatment period (Lepeophtheirus salmonis [1]; [10]): 75% | percentage responsiveness of lice recovered from tank at treatment end at 24 hours post-treatment (Lepeophtheirus salmonis [1]; [5]): 44% | percentage responsiveness for sea lice recovered from fish at the end of the treatment period (Lepeophtheirus salmonis [1]; [11]): 100% | percentage responsiveness of lice recovered from tank at treatment end at 24 hours post-treatment (Lepeophtheirus salmonis [1]; [6]): 33% | percentage of sea lice that dropped from treated fish at the end of the treatment period (Lepeophtheirus salmonis [2]; exposure 5 min): 0% | percentage of sea lice that dropped from treated fish at the end of the treatment period (Lepeophtheirus salmonis [2]; exposure 10 min): 0% | percentage of sea lice that dropped from treated fish at the end of the treatment period (Lepeophtheirus salmonis [2]; exposure 15 min): 9.1% | knockdown times (mean±SEM) (Lepeophtheirus salmonis [2]; exposure 15 min): 900* seconds | percentage of lice for which their knockdown time equalled that of the exposure time (Lepeophtheirus salmonis [2]; exposure 15 min): 100* % | percentage of sea lice that dropped from treated fish at the end of the treatment period (Lepeophtheirus salmonis [2]; exposure 30 min): 69.2% | knockdown times (mean±SEM) (Lepeophtheirus salmonis [2]; exposure 30 min): 1706 ± 71 s | percentage of lice for which their knockdown time equalled that of the exposure time (Lepeophtheirus salmonis [2]; exposure 30 min): 77.8% | percentage of sea lice that dropped from treated fish at the end of the treatment period (Lepeophtheirus salmonis [2]; exposure 60 min): 54.5% | knockdown times (mean±SEM) (Lepeophtheirus salmonis [2]; exposure 60 min): 2289 ± 424 s | percentage of lice for which their knockdown time equalled that of the exposure time (Lepeophtheirus salmonis [2]; exposure 60 min): 33.3%

CN1COCN(Cc2cnc(Cl)s2)/C1=N\[N+](=O)[O-] [thiamethoxam]
percentage responsiveness for sea lice recovered from fish at the end of the treatment period (Lepeophtheirus salmonis [1]; [7]): 100% | percentage responsiveness for sea lice recovered from fish at the end of the treatment period (Lepeophtheirus salmonis [1]; [8]): 100% | percentage responsiveness for sea lice recovered from fish at the end of the treatment period (Lepeophtheirus salmonis [1]; [9]): 100% | percentage responsiveness for sea lice recovered from fish at the end of the treatment period (Lepeophtheirus salmonis [1]; [10]): 100% | percentage responsiveness for sea lice recovered from fish at the end of the treatment period (Lepeophtheirus salmonis [1]; [11]): 92% | Knockdown effect (Lepeophtheirus salmonis [2]; 20 ppm, exposure 5 to 60 minutes): No knockdown | percentage of sea lice that dropped from treated fish at the end of the treatment period (Lepeophtheirus salmonis [2]; exposure 5 min): 0% | percentage of sea lice that dropped from treated fish at the end of the treatment period (Lepeophtheirus salmonis [2]; exposure 10 min): 0% | percentage of sea lice that dropped from treated fish at the end of the treatment period (Lepeophtheirus salmonis [2]; exposure 15 min): 0% | percentage of sea lice that dropped from treated fish at the end of the treatment period (Lepeophtheirus salmonis [2]; exposure 30 min): 0% | percentage of sea lice that dropped from treated fish at the end of the treatment period (Lepeophtheirus salmonis [2]; exposure 60 min): 0%
